# Assays:
# U2OS cells [1] = assay: FACS analysis of DNA content / cell cycle distribution; format: cell-based, human; conditions: for interaction with SCPVUTAT on the cell cycle: simultaneous incubation with SCPVUTAT
# Description: The distribution of the various phases of the cell cycle of the protein transduced cells was analysed by FACS analysis. Distribution of the DNA content of the cell populations was detected. 2n represents a diploid DNA equivalent (non replicated; G1 phase), 4n represents the tetraploid DNA equivalent (replicated; G2/M phase). For the FACS analysis the cells were separated employing the DDM mode that allows to estimate DNA content of a single cell. U2OS cells were grown for 24 hours (upper row) or 48 hours (lower row) in the presence of increasing amounts of […] (10 nM, 50 nM, 100 nM) as indicated and with only one addition of proteins; non treated cells (control); cells treated with a nuclease impaired derivative of […] (SC34, 100 nM). All the histograms shown represent a measure of DNA content relative to the cell numbers as indicated only on the upper right panel.
# U2OS cells were incubated with […] (10 nM, panel B), or with H2O2 (10 μM, panelC), or both ([…], 10 nM; H2O2, 10 μM; panel D), or with no agent as a control (panel A). Further treatment cells were analysed in FACS for DNA content; the percentage of the various cell cycle phases are indicated at the bottoms of the individual histograms.
# Finally, to confirm that the DSB's that are produced in vivo also induce perturbations in the cell cycle, DNA content in the various phases of the cell cycle was analysed by Fluorescence Activated Cell Sorting (FACS) after transduction of the proteins of the invention. After the treatment with diverse proteins at various concentrations and during different timepoints, the cells were fixed in 70% ethanol, treated with RNAse A and stained with propidium […].
# The FACS analysis was done using a FACSCalibur™ (Becton Dickinson) apparatus. The obtained data were evaluated with the CellQuest™ software program package. At least 3×10^4 single events for every sample were analysed in the DDM mode. The statistic analysis of the DNA content distribution during the cell cycle was done with the MODFIT LT™ software program package. A 2N diploid DNA content correspond to cells in the G1 phase of the cell cycle, 4N represents a relative tetraploid DNA content and corresponds to G2 and/or M phase of the cell cycle. An intermediate DNA content represents S phase corresponding to a population actively replicating DNA during the cell cycle and a content that is below diploid 2N represents cells in apoptosis.
# U2OS cells were incubated with 10 nM […] and with 10 μM H2O2 alone or in combination ant the cell cycle profile was analysed by FACS.
# HCT116 (p53(+/+)) cells = assay: Cell cycle arrest point: nuclear morphology and immunofluorescence of cyclin B1 and Cdc25C; format: cell-based, human; conditions: 30 hours; SCPVUTAT 100 nM or Taxol 0.2 μg/ml
# Description: Microscopic analysis of the HCT116 (p53(+/+)) cells not treated, or treated with […] (100 nM) for 30 hours, or with taxol (0.2 μg/ml). Immunofluorescence analysis was done with primary antibodies specific for cyclin B1 or specific for Cdc25C and coloured with secondary conjugates of FITC (green, cyclinB1) or TRITC (red, Cdc25C).
# Moreover, the initiation of mitosis, i.e. induced with the microtuble blocking agents Nocodazol or Taxol, can be detected by the nuclear activity of the Cdc2 kinase and also by nuclear localisation of Cdc25C. These assays allow to dissect the exact point of cell cycle arrest after […] treatment and this further allows to detect disturbations in this phase of the cell cycle relative to a positive control. Similar experiments are well known in the art also for other phases of the cell cycle. The assay shown in FIG. 7A and the immunofluorescence analysis shown in FIG. 14 show examples for these types of experiments.
# HCT116 (p53(+/+)) not treated, or treated for 30 hours with […] (100 nM), or with Taxol (0.2 μg/ml) were fixated with 3% PFA and treated with specific antibodies to cyclin B1 or for Cdc25C. The immunofluorescence was analysed with the microscope (see FIG. 14) with specific primary antibodies to cyclin B1 conjugated to FITC labelled secondary antibodies (green) or with specific primary antibodies to Cdc25C conjugated to TRITC labelled secondary antibodies (red).
# [2] = test system: U2OS osteosarcoma cells and IMR90 primary fibroblasts; assay: Protein transduction of the chimeric proteins (immunoblot and immunofluorescence with PvuII antibody); format: cell-based, human
# Description: For a comparison aliquots of the supernatants of the cell culture taken before extract preparation were included in the analysis (upper panel, SUPERNATANT).
# In addition DNA costaining was obtained with propidium J after RNAse A digest (red, upper panel).
# The transduction capacity of the chimeric proteins was assayed in U2OS osteosarcoma cells and in the IMR90 primary fibroblasts cells. The cells were grown in DMEM containing 10% FCS and treated with the proteins of the invention in the same medium, in general in the presence of antibiotics. After 10 minutes of incubation of the cells with increasing quantities of the fusion protein […] (1, 10, 50, 100, 200 nM) and with the protein SCPVU (single chain PvuII without TAT) and SC34 as a control (prepared as described for […] except that the enzyme PvuII contains a mutant in position 34) cell extracts were prepared, separated on SDS-PAGE and assayed by immuno-blot analysis with a monospecific antibody to PvuII. Further, uptake was assayed after 30 min of incubation by immuno-fluorescence analysis using PvuII specific antibodies and nuclear costaining with propidium iodide.
# ATM, ATR and TOR = conditions: Sarkaria et al., 1999; target not stated with the value; cited from earlier work
# U2OS cells [3] = assay: Histone H2AX Ser139 phosphorylation, single cell fluorescence microscopy; format: cell-based, human; conditions: Wortmanin 50 μM with SCPVUTAT 100 nM, 60 minutes
# Description: U2OS cells were treated with [sequence] (100 nM, central column) for 60 minutes, in addition treatment was done with Wortmanin (50 μM, WM, right column), or with no agent as a control (left column). After treatment cells were stained with specific antibodies to H2AX-Ser-139 phosphorylated (red) or for Histone 2B (served as a control, green) and analysed on a single cell level by fluorescence microscopy.
# As another example for a phosphorylation of a substrate of ATM in response to the object of the invention, histone H2AX Ser^139 phosphorylation was analysed. […] U2OS cells were treated for 60 minutes with [sequence], fixed and analysed for histone H2AX Ser^139 phosphorylation. Cells were analysed with a specific antiserum to phospho-Ser 139 on histone H2AX and analysed in the microscope on a single cell basis. As a control histone 2B was analysed.
# [4] = test system: MRC-5 cells (ATM positive); conditions: SCPVUTAT 100 nM or HU 1 mM
# Description: [sequence] dependent Ser^15 phosphorylation of p53. The ATM positive cell-line MRC5 was treated with [sequence] (100 nM, SC) or with hydroxyurea (1 mM, HU) for the time periods as indicated; as a control non treated cells were used (O).
# (§1) P53 phosphorylation on Ser15 in response to [sequence] treatment was assayed in ATM positive or negative cell lines (MRC-5 and AT-5 respectively). For comparison parallel experiments were done with hydroxyurea (HU). […] For this immunoblotting experiments were done with extracts after treatment, by using specific antibodies to a phosphorylated Ser15 in p53 for specific detection.
# [5] = test system: AT-5 cells (ATM negative); conditions: SCPVUTAT 100 nM or HU 1 mM
# Description: AT-5 cells, negative for ATM were treated with [sequence]
# as §1
smiles,measurement,setting,value
OO [H2O2],change of G2 phase,U2OS cells [1]; 10 μM H2O2 alone,no increase in G2
same,interaction with SCPVUTAT on the cell cycle,U2OS cells [1],synergistic effect
"CC(=O)O[C@H]1C(=O)[C@@]2(C)[C@H]([C@H](OC(=O)c3ccccc3)[C@]3(O)C[C@H](OC(=O)[C@H](O)[C@@H](NC(=O)c4ccccc4)c4ccccc4)C(C)=C1C3(C)C)[C@]1(OC(C)=O)CO[C@@H]1C[C@@H]2O [Taxol, reference compound]",cell cycle stop from localisation of Cdc25C and cyclin B,HCT116 (p53(+/+)) cells,stop in M phase
Cn1c(=O)c2c(ncn2C)n(C)c1=O [caffeine],influence of caffeine on the transduction capacity of SCPVUTAT,[2],nor does it influence the transduction capacity
same,effect of caffeine on the SCPVUTAT cell cycle stop,"U2OS cells [1]; 100 nM SCPVUTAT in combination with 2 mM caffeine, 30 hours",antagonist to the effect of SCPVUTAT in vivo
same,cell cycle effect of caffeine alone,U2OS cells [1]; 2 mM caffeine,moderate delay in the G1 phase
same,IC50,"ATM, ATR and TOR",< 1000 µM
C[C@@]1(CO)[C@H](O)CC[C@@]2(C)[C@H]1CC[C@H]1C[C@@H]3C[C@@]12CC[C@]3(O)CO [aphidicolin],interaction with SCPVUTAT on the cell cycle,U2OS cells [1],no synergistic effect was observed
"COC[C@H]1OC(=O)c2coc3c2[C@@]1(C)C1=C(C3=O)[C@@H]2CCC(=O)[C@@]2(C)C[C@H]1OC(C)=O [Wortmanin, reference compound]",effect on SCPVUTAT induced histone H2AX Ser139 phosphorylation,U2OS cells [3],antagonist for this reaction
"NC(=O)NO [HU, hydroxyurea, reference compound]",p53-Ser15 phosphorylation,[4],comparable however consistently higher
same,p53-Ser15 phosphorylation,[5],comparable however consistently higher

# Reference: patent US20150018409A1, “CHIMERIC POLYPEPTIDES AND THEIR USE” (ADRIACELL S.P.A., priority 2003, published 2015)
